This is an account of results in patent publication US11851428B2, “Activator of TREK (TWIK RElated K+channels) channels” (ONO PHARMACEUTICAL CO., LTD., priority 2016, dated 2023).

Where two headings read alike, the source gives them in different places.

The target in this assay is T1, human TREK-1 (Homo sapiens, UniProt O95069).
T1 construct: expressed in transfected cells
T1 sequence (O95069 1-426): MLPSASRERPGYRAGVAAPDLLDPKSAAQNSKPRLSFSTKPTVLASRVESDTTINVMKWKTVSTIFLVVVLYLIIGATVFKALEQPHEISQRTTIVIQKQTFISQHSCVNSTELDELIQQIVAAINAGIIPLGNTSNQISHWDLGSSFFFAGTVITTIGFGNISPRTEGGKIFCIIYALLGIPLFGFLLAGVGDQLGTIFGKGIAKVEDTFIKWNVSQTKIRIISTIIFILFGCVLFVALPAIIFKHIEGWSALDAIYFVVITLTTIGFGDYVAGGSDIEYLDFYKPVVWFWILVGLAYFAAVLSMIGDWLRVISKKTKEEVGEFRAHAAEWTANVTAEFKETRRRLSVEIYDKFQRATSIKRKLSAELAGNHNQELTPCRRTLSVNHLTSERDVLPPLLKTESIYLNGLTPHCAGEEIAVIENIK
Nature of the assay: thallium flux assay (TREK1 activation normalized to BL-1249). It counts as cell-based. To be noted: for activation at 30 µM: concentration of Example compound 30 μM. The protocol: The term “thallium flux assay” herein refers to a fluorescence-based assay used to monitor the activity of TREK channels. Thallium is a congener of potassium that readily fluxes through the pore of TREK channels. Thallium flux is measured using a commercially available, thallium-sensitive fluorescent dye called Thallos. The detail method is described below.
Method 1 (Thallium Flux Assay);
CHO-K1 cells stably expressing human TREK-1 or HEK293 cells stably expressing human TREK-2 are plated in 384-well plates, cultured overnight, loaded with Thallos dye the following day, treated with test compounds for 10 min, and then treated with thallium stimulus buffer to initiate thallium flux. The change in fluorescence at 25 seconds after thallium addition is normalized to baseline fluorescence (fluorescent intensity at 25 sec after Tl^+ addition)/(average of fluorescent intensity at pre-read).

[1] abbreviates: concentration of Example compound 10 μM, normalized to 10 μM BL-1249, CHO-K1 cells stably expressing human TREK-1, read-out: TREK1 activation RBL-1249 (%).
Setting [2] is: concentration of Example compound 10 μM, normalized to 10 μM BL-1249, CHO-K1 cells stably expressing human TREK-1.
Where [3] appears, read: normalized to 10 μM BL-1249, CHO-K1 cells stably expressing human TREK-1, read-out: TREK1 activation RBL-1249 (%).

For the molecule `O=C(NCc1ccc(S(F)(F)(F)(F)F)cc1)c1ccc(-n2cncn2)cc1` [Example 2-2, N-[4-(pentafluoro-λ^6-sulfanyl)benzyl]-4-(1H-1,2,4-triazol-1-yl)benzamide], the activation at 10 µM under setting [1] worked out at 41%.

Consider `O=C(NCc1ccc(OC(F)(F)F)c(F)c1)c1ccc(-n2cncn2)cc1` [Example 2-3, N-[3-fluoro-4-(trifluoromethoxy)benzyl]-4-(1H-1,2,4-triazol-1-yl)benzamide], for which the activation at 10 µM under setting [1] was found to be 72%.

On to `O=C(NCc1ccc(OC(F)(F)F)cc1)c1ccc(-c2cnco2)cc1` [Example 2-6, 4-(1,3-oxazol-5-yl)-N-[4-(trifluoromethoxy)benzyl]benzamide], for which the activation at 10 µM under setting [1] worked out at 32%.

Regarding `O=C(NCc1ccc(OC(F)(F)F)cc1)c1ccc(-c2nccs2)cc1` [Example 2-9, 4-(1,3-thiazol-2-yl)-N-+4-(trifluoromethoxy)benzyl+benzamide], under setting [2], the “TREK1 activation RBL-1249 (%)” value amounted to 25%.

Consider `O=C(NCc1ccc(OC(F)(F)F)cc1)c1ccc(-c2cnc[nH]2)cc1` [Example 2-10, 4-(1H-imidazol-5-yl)-N-[4-(trifluoromethoxy)benzyl]benzamide], for which the activation at 10 µM under setting [1] is 46%.

For the molecule `O=C(NCc1ccc(OC(F)(F)F)cc1)c1ccc(-c2nnco2)cc1` [Example 2-12, 4-(1,3,4-oxadiazol-2-yl)-N-[4-(trifluoromethoxy)benzyl]benzamide], the activation at 10 µM under setting [1] is 29%.

Regarding `O=C(NCc1ccc(OC(F)(F)F)cc1F)c1ccc(-n2cncn2)cc1` [Example 2-16, N-[2-fluoro-4-(trifluoromethoxy)benzyl]-4-(1H-1,2,4-triazol-1-yl)benzamide], under setting [1], the activation at 10 µM turned out to be 46%.

As for `O=C(NCc1ccc(SC(F)(F)F)cc1)c1ccc(-n2cncn2)cc1` [Example 2-18, 4-(1H-1,2,4-triazol-1-yl)-N-{4-[(trifluoromethyl)thio]benzyl}benzamide], the activation at 10 µM under setting [1] was found to be 39%.

Consider `O=C(NCc1ccc(OC(F)(F)F)c(F)c1)c1ccc(-c2nc[nH]n2)cc1` [Example 2-22, N-[3-fluoro-4-(trifluoromethoxy)benzyl]-4-(1H-1,2,4-triazol-3-yl)benzamide], for which the activation at 10 µM under setting [1] worked out at 66%.

In the case of `O=C(NCc1ccc(OC(F)(F)F)cc1F)c1ccc(-c2ncn[nH]2)cc1` [Example 2-24, N-[2-fluoro-4-(trifluoromethoxy)benzyl]-4-(1H-1,2,4-triazol-5-yl)benzamide], the activation at 10 µM under setting [1] stood at 69%.

In the case of `COc1cc(OC(F)(F)F)ccc1CNC(=O)c1ccc(-c2nc[nH]n2)cc1` [Example 2-25, N-[2-methoxy-4-(trifluoromethoxy)benzyl]-4-(1H-1,2,4-triazol-3-yl)benzamide], the activation at 10 µM under setting [1] is 48%.

For `O=C(NCc1ccc(C(F)(F)F)cc1Cl)c1ccc(-c2nc[nH]n2)cc1` [Example 2-26, N-[2-chloro-4-(trifluoromethyl)benzyl]-4-(1H-1,2,4-triazol-3-yl)benzamide], the activation at 10 µM under setting [1] came out at 76%.

In the case of `O=C(NCc1ccc(C(F)(F)F)cc1Cl)c1ccc(-c2cccnc2)cc1` [Example 2-28, N-[2-chloro-4-(trifluoromethyl)benzyl]-4-(3-pyridinyl)benzamide], under setting [1], the activation at 10 µM was determined as 22%.

Consider `COc1cc(OC(F)(F)F)ccc1CNC(=O)c1ccc(-c2ccccn2)nc1` [Example 2-29], for which the “TREK1 activation RBL-1249 (%)” value under setting [2] stood at 51%.

Consider `COc1cc(OC(F)(F)F)ccc1CNC(=O)c1ccc(-n2cncn2)nc1` [Example 2-30, N-[2-methoxy-4-(trifluoromethoxy)benzyl]-6-(1H-1,2,4-triazol-1-yl)nicotinamide], for which the activation at 10 µM under setting [1] is 42%.

For the molecule `O=C(NCc1ccc(OC(F)(F)F)cc1)c1nc(-c2ccccn2)cs1` [Example 2-32, 4-(2-pyridinyl)-N-[4-(trifluoromethoxy)benzyl]-1,3-thiazole-2-carboxamide], the activation at 30 µM under setting [3] was found to be 38%.

`Cc1cc(OC(F)(F)F)ccc1CNC(=O)c1ccc(-c2ncn[nH]2)cc1` [Example 2-34, N-[2-methyl-4-(trifluoromethoxy)benzyl]-4-(1H-1,2,4-triazol-5-yl)benzamide]: the activation at 10 µM under setting [1] came out at 80%.

Take `O=C(NCc1ccc(OC(F)(F)F)cc1F)c1ccc(-c2ncc[nH]2)cc1` [Example 2-36, N-[2-fluoro-4-(trifluoromethoxy)benzyl]-4-(1H-imidazol-2-yl)benzamide]: the activation at 10 µM under setting [1] is 73%.

`O=C(NCc1ccc(C(F)(F)F)cn1)c1ccc(-n2cccn2)cc1` [Example 2-37, 4-(1H-pyrazol-1-yl)-N-{[5-(trifluoromethyl)-2-pyridinyl]methyl}benzamide]: the activation at 30 µM under setting [3] worked out at 24%.

Regarding `Cc1cc(OC(F)(F)F)ccc1CNC(=O)c1ccc(-n2cccn2)cc1` [Example 2-38, N-[2-methyl-4-(trifluoromethoxy)benzyl]-4-(1H-pyrazol-1-yl)benzamide], the activation at 10 µM under setting [1] amounted to 55%.

Turning to `COc1cc(OC(F)(F)F)ccc1CNC(=O)c1ccc(-n2cccn2)cc1` [Example 2-41, N-[2-methoxy-4-(trifluoromethoxy)benzyl]-4-(1H-pyrazol-1-yl)benzamide], the activation at 10 µM under setting [1] turned out to be 63%.

As to `O=C(NCc1ccc(OC(F)(F)F)cc1)c1ccc(-c2ncccn2)cc1` [Example 2-47, 4-(2-pyrimidinyl)-N-[4-(trifluoromethoxy)benzyl]benzamide], under setting [1], the activation at 10 µM was 44%.

Regarding `O=C(NCc1ccc(Br)cc1Cl)c1ccc(-c2ncn[nH]2)cc1` [Example 2-49, N-(4-bromo-2-chlorobenzyl)-4-(1H-1,2,4-triazol-5-yl)benzamide], under setting [1], the activation at 10 µM came to 84%.

As for `Cc1cc(C(=O)NCc2ccc(Br)cc2Cl)cn2ncnc12` [Example 3-2, N-(4-bromo-2-chlorobenzyl)-8-methyl[1,2,4]triazolo[1,5-a]pyridine-6-carboxamide], the activation at 30 µM under setting [3] was found to be 41%.

Regarding `Cc1nnc2cc(C(=O)NCc3ccc(OC(F)(F)F)c(F)c3)ccn12` [Example 3-3, N-[3-fluoro-4-(trifluoromethoxy)benzyl]-3-methyl[1,2,4]triazolo[4,3-a]pyridine-7-carboxamide], the activation at 10 µM under setting [1] is 67%.

For the molecule `Cc1nc2ccc(C(=O)NCc3ccc(OC(F)(F)F)cc3C)cn2n1` [Example 3-4, 2-methyl-N-[2-methyl-4-(trifluoromethoxy)benzyl][1,2,4]triazolo[1,5-a]pyridine-6-carboxamide], under setting [1], the activation at 10 µM stood at 89%.

Consider `Cc1cc(OC(F)(F)F)ccc1CNC(=O)c1ccn2c(C)nnc2c1` [Example 3-5, 3-methyl-N-[2-methyl-4-(trifluoromethoxy)benzyl][1,2,4]triazolo[4,3-a]pyridine-7-carboxamide], for which the activation at 10 µM under setting [1] is 89%.

On to `CS(=O)(=O)N1CCOc2cc(C(=O)NCc3ccc(Br)cc3Cl)ccc21` [Example 3-10, N-(4-bromo-2-chlorobenzyl)-4-(methylsulfonyl)-3,4-dihydro-2H-1,4-benzoxazine-7-carboxamide], for which the activation at 30 µM under setting [3] was 34%.

`COc1cc(OC(F)(F)F)ccc1CNC(=O)c1ccc(-c2noc(=O)[nH]2)cc1` [Example 4, N-[2-Methoxy-4-(trifluoromethoxy)benzyl]-4-(5-oxo-4,5-dihydro-1,2,4-oxadiazol-3-yl)benzamide]: the activation at 30 µM under setting [3] was found to be 77%.

Take `COc1cc(OC(F)(F)F)ccc1CNC(=O)c1ccc(-c2nnn[nH]2)cc1` [Example 5, N-[2-Methoxy-4-(trifluoromethoxy)benzyl]-4-(1H-tetrazol-5-yl)benzamide]: the activation at 30 µM under setting [3] was determined as 79%.

For the molecule `O=C(Cc1ccc(OC(F)(F)F)cc1F)Nc1ccc2ncnn2c1` [Example 6, 2-[2-Fluoro-4-(trifluoromethoxy)phenyl]-N-([1,2,4]triazolo[1,5-a]pyridin-6-yl)acetamide], the activation at 30 µM under setting [3] worked out at 19%.

On to `O=C(NCc1ccc(Cl)cc1Cl)c1ccc(CN2CCOCC2)cc1` [Example 7, N-(2,4-Dichlorobenzyl)-4-(4-morpholinomethyl)benzamide], for which the activation at 30 µM under setting [3] was determined as 38%.

Take `COc1cc(OC(F)(F)F)ccc1CNC(=O)c1ccc(NS(C)(=O)=O)nc1` [Example 8-2, N-[2-methoxy-4-(trifluoromethoxy)benzyl]-6-[(methylsulfonyl)amino]nicotinamide]: the activation at 30 µM under setting [3] was 48%.

With `O=C(NCc1ccc(OC(F)(F)F)cc1Cl)c1ccn2cnnc2c1` [Example 9, N-[[2-Chloro-4-(trifluoromethoxy)phenyl]methyl]-[1,2,4]triazolo[4,3-a]pyridine-7-carboxamide], under setting [1], the activation at 10 µM turned out to be 99%.

On to `O=C(NCc1ccc(OC(F)(F)F)cc1Cl)c1ccc2ncnn2c1` [Example 9-2, N-[[2-chloro-4-(trifluoromethoxy)phenyl]methyl]-[1,2,4]triazolo[1,5-a]pyridine-6-carboxamide], for which, where the note is “CHO-K1, read-out: TREK1 activation RBL-1249 (%)”, the activation at 10 µM worked out at 106%.
